Results published in ChEMBL document CHEMBL1201862, “PubChem BioAssay data set” (2004).
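Five compound concentrations were applied to cells in 96-well plates for 48 hours; endpoints were derived by simple linear interpolation of the resulting dose-response curve. Here, GI50 denotes the concentration required for 50% inhibition of growth.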 The source made the active and inactive calls. Cut-off read from the data, not from the text of the source: active = GI50 up to about 1.1 µM and inactive = higher.

Assays:
Experiment in all cases: DTP human tumour cell line panel, 48 h
A498 = system: A498
BT-549 = system: BT-549
COLO 205 = system: COLO 205
EKVX = system: EKVX
HL-60 = system: HL-60
Hs-578T = system: Hs-578T
LOX IMVI = system: LOX IMVI
NCI-H23 = system: NCI-H23
NCI-H460 = system: NCI-H460
OVCAR-3 = system: OVCAR-3
SF-295 = system: SF-295
SK-MEL-28 = system: SK-MEL-28
SK-MEL-2 = system: SK-MEL-2
SN12C = system: SN12C
SNB-19 = system: SNB-19
SR = system: SR
T47D = system: T47D
TK-10 = system: TK-10
UACC-62 = system: UACC-62
M19-MEL = system: M19-MEL

Compound	GI50 (A498)	GI50 (BT-549)	GI50 (COLO 205)	GI50 (EKVX)	GI50 (HL-60)	GI50 (Hs-578T)	GI50 (LOX IMVI)	GI50 (NCI-H23)	GI50 (NCI-H460)	GI50 (OVCAR-3)	GI50 (SF-295)	GI50 (SK-MEL-28)	GI50 (SK-MEL-2)	GI50 (SN12C)	GI50 (SNB-19)	GI50 (SR)	GI50 (T47D)	GI50 (TK-10)	GI50 (UACC-62)	GI50 (M19-MEL)
O=C(O)/C(Cc1ccnc2ccccc12)=N\O	> 100 µM (inactive)	> 100 µM (inactive)	> 100 µM (inactive)	> 100 µM (inactive)	> 100 µM (inactive)	> 100 µM (inactive)	> 100 µM (inactive)	> 100 µM (inactive)	> 100 µM (inactive)	> 100 µM (inactive)	> 100 µM (inactive)	> 100 µM (inactive)	> 100 µM (inactive)	> 100 µM (inactive)	> 100 µM (inactive)	> 100 µM (inactive)	> 100 µM (inactive)	> 100 µM (inactive)	> 100 µM (inactive)	–
NC1=C(NC(=O)Cc2ccccc2F)C(=O)c2ccccc2C1=O	–	–	> 100 µM (inactive)	59.3 µM (inactive)	88.3 µM (inactive)	–	–	40.6 µM (inactive)	47.2 µM (inactive)	8.26 µM (inactive)	32.6 µM (inactive)	> 100 µM (inactive)	14.3 µM (inactive)	90.6 µM (inactive)	35.8 µM (inactive)	–	–	41.2 µM (inactive)	37.8 µM (inactive)	4.5 µM (inactive)
O=c1cc(NNc2ccc(F)cc2)[nH]c(=O)[nH]1	35.3 µM (inactive)	13.6 µM (inactive)	16.5 µM (inactive)	18.3 µM (inactive)	6.65 µM (inactive)	28.4 µM (inactive)	> 100 µM (inactive)	29.4 µM (inactive)	19.4 µM (inactive)	16.4 µM (inactive)	> 100 µM (inactive)	18.3 µM (inactive)	21.4 µM (inactive)	18.2 µM (inactive)	19.3 µM (inactive)	35.1 µM (inactive)	27 µM (inactive)	22 µM (inactive)	15.1 µM (inactive)	–
Cc1ccc(/N=C2N=C(Cl)/C(=C\c3ccccc3)N\2)cc1	> 100 µM (inactive)	> 100 µM (inactive)	85.3 µM (inactive)	> 100 µM (inactive)	3.9 µM (inactive)	> 100 µM (inactive)	3.76 µM (inactive)	> 100 µM (inactive)	78 µM (inactive)	> 100 µM (inactive)	> 79.3 µM (inactive)	> 100 µM (inactive)	> 100 µM (inactive)	> 100 µM (inactive)	> 100 µM (inactive)	0.625 µM (active)	88.7 µM (inactive)	> 100 µM (inactive)	4.26 µM (inactive)	–
OC1c2ccccc2[C@@H]2[C@H]1[C@@H](c1ccccc1)C1(Cc3ccccc3C1O)[C@H]2c1ccccc1 (some centres undefined)	10.1 µM (inactive)	14.7 µM (inactive)	1.84 µM (inactive)	6.35 µM (inactive)	2.01 µM (inactive)	6.93 µM (inactive)	2.49 µM (inactive)	6.4 µM (inactive)	3.13 µM (inactive)	2.36 µM (inactive)	6.75 µM (inactive)	9.55 µM (inactive)	7.06 µM (inactive)	1.77 µM (inactive)	13.6 µM (inactive)	1.11 µM (active)	6.71 µM (inactive)	16.1 µM (inactive)	6.14 µM (inactive)	–
Cc1ccc(OCC2OC(n3cnc4c(Cl)nc(Cl)nc43)CC2Oc2ccc(C)cc2)cc1 (centres undefined)	23.1 µM (inactive)	2.17 µM (inactive)	1.96 µM (inactive)	3.52 µM (inactive)	2.36 µM (inactive)	1.9 µM (inactive)	1.79 µM (inactive)	1.85 µM (inactive)	1.87 µM (inactive)	2.37 µM (inactive)	2.52 µM (inactive)	2.7 µM (inactive)	2.24 µM (inactive)	3.85 µM (inactive)	1.5 µM (inactive)	2.49 µM (inactive)	2.14 µM (inactive)	11.2 µM (inactive)	1.98 µM (inactive)	–
CC(C)NC(=O)CN1CCN(C2=C(Cl)C(=O)c3c(O)ccc(O)c3C2=O)CC1	3.05 µM (inactive)	1.49 µM (inactive)	1.31 µM (inactive)	3.72 µM (inactive)	0.187 µM (active)	2.39 µM (inactive)	0.65 µM (active)	1.03 µM (active)	7.5 µM (inactive)	1.57 µM (inactive)	7.1 µM (inactive)	1.66 µM (inactive)	1.49 µM (inactive)	1.68 µM (inactive)	13.6 µM (inactive)	0.148 µM (active)	1.91 µM (inactive)	2.07 µM (inactive)	1.73 µM (inactive)	–
OCc1ccc2c(c1)CC1(C2)Cc2cc3c(cc2C1)CCC3	5.86 µM (inactive)	2.81 µM (inactive)	2.51 µM (inactive)	8.04 µM (inactive)	1.11 µM (active)	4.02 µM (inactive)	3.66 µM (inactive)	4.3 µM (inactive)	3.87 µM (inactive)	3.02 µM (inactive)	3.39 µM (inactive)	8.3 µM (inactive)	3.75 µM (inactive)	2.45 µM (inactive)	4.89 µM (inactive)	1.14 µM (inactive)	4.82 µM (inactive)	13 µM (inactive)	6.53 µM (inactive)	–
Cc1ccc(S(=O)(=O)N2CCNCCN(S(=O)(=O)c3ccc(C)cc3)CCNCC2)cc1	23.2 µM (inactive)	19.1 µM (inactive)	16.4 µM (inactive)	24 µM (inactive)	10.2 µM (inactive)	17.8 µM (inactive)	12.5 µM (inactive)	32.3 µM (inactive)	14.7 µM (inactive)	14.2 µM (inactive)	15.8 µM (inactive)	18.5 µM (inactive)	19.8 µM (inactive)	29.6 µM (inactive)	31 µM (inactive)	16.4 µM (inactive)	12.3 µM (inactive)	18.3 µM (inactive)	18.8 µM (inactive)	–
O=C(/C=C/c1ccccc1)N1CCCCC1	> 100 µM (inactive)	> 100 µM (inactive)	> 100 µM (inactive)	> 100 µM (inactive)	> 100 µM (inactive)	> 100 µM (inactive)	> 100 µM (inactive)	> 100 µM (inactive)	> 100 µM (inactive)	> 100 µM (inactive)	> 100 µM (inactive)	> 100 µM (inactive)	> 100 µM (inactive)	> 100 µM (inactive)	> 100 µM (inactive)	> 100 µM (inactive)	> 100 µM (inactive)	> 100 µM (inactive)	> 100 µM (inactive)	–
CCc1nc(N)nc(N)c1-c1ccc([N+](=O)[O-])c(NCc2ccccc2)c1	15.5 µM (inactive)	16.9 µM (inactive)	14.7 µM (inactive)	11.2 µM (inactive)	5.82 µM (inactive)	13.8 µM (inactive)	14.5 µM (inactive)	14.5 µM (inactive)	6.17 µM (inactive)	13.2 µM (inactive)	10.4 µM (inactive)	16.4 µM (inactive)	21.6 µM (inactive)	20 µM (inactive)	16.4 µM (inactive)	10.3 µM (inactive)	6.47 µM (inactive)	20.2 µM (inactive)	15.7 µM (inactive)	–
